PubChem BioAssay (NCI)
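Growth conditions: 96-well plates. Treatment: test compound, 48 hours, 5 concentrations. Analysis: linear interpolation between bracketing concentrations; unreached endpoints set to highest concentration. TGI denotes the concentration required for complete inhibition of growth.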

Key:
Assay in all cases: DTP human tumour cell line panel, 48 h
[1] = system: XF 498 CNS
[2] = system: M19-MEL melanoma
[3] = system: NCI-H522 lung
[4] = system: SK-OV-3 ovarian
[5] = system: DLD-1 colon
[6] = system: M14 melanoma
[7] = system: NCI-H460 lung
[8] = system: DMS 273 small cell lung
[9] = system: UACC-257 melanoma
[10] = system: HOP-18 NSCLC
[11] = system: LXFL 529 NSCLC
[12] = system: DMS 114 small cell lung
[13] = system: KM12 colon
[14] = system: CCRF-CEM leukemia
[15] = system: HOP-62 NSCLC
[16] = system: KM20L2 colon
[17] = system: SNB-78 CNS
[18] = system: DU-145 prostate
[19] = system: NCI/ADR-RES ovarian

| SMILES | TGI [1] [µM] | TGI [2] [µM] | TGI [3] [µM] | TGI [4] [µM] | TGI [5] [µM] | TGI [6] [µM] | TGI [7] [µM] | TGI [8] [µM] | TGI [9] [µM] | TGI [10] [µM] | TGI [11] [µM] | TGI [12] [µM] | TGI [13] [µM] | TGI [14] [µM] | TGI [15] [µM] | TGI [16] [µM] | TGI [17] [µM] | TGI [18] [µM] | TGI [19] [µM] |
| --- | --- | --- | --- | --- | --- | --- | --- | --- | --- | --- | --- | --- | --- | --- | --- | --- | --- | --- | --- |
| CCC/C=C1\CCC(CN(C)C)C1=O (stereo not drawn) | 11.1 | 26.7 | 3.87 | > 56.7 | 5.54 | 16.1 | > 63.2 | 27.1 | 30.8 | 39 | 3.33 | 31.2 | 15.3 | 1.97 | 29.2 | 27.2 |  |  |  |
| COC(=O)C1C=CCON2CCc3c(n(C)c4ccccc34)C12 (stereo not drawn) | > 100 | > 100 | > 100 | > 100 | > 100 | > 100 | > 100 | > 100 |  |  | > 100 | > 100 | > 100 | > 100 | > 100 | > 100 | > 100 |  |  |
| O=C1c2ccccc2C(=O)c2c(O)c(NCCCNCCO)cc(O)c21 | 32.7 | 27.4 |  | 26.1 | 19.8 | 36.6 | 17.8 | 22.7 |  | 17.5 | 29.8 | 26.2 | 21 | 15.5 | 15.4 |  | 39.8 |  |  |
| COC(=O)/C=C\C(C#N)(C#N)N=Cc1ccccc1 |  |  | 1.67 | 32.4 |  | 5.41 | 39.5 |  | 12.8 |  |  |  | 33.4 | 2.4 | 34 |  |  | 31.4 | 9.03 |
| CC(=O)c1ccccc1NCC(=O)Nn1cnc2ccc(S(=O)(=O)Nc3ccccc3C(C)=O)cc2c1=O |  |  | > 100 | > 100 |  | > 100 | > 100 |  | > 100 |  |  |  | > 100 | > 100 | > 100 |  |  | > 100 | > 100 |
| C(=N\Nc1ccc(-c2nc3ccccc3[nH]2)cc1)/c1c(-c2ccc(Cc3ccccc3)cc2)[nH]c2ccccc12 |  |  | 31.9 | > 100 |  | > 54.4 | > 100 |  | > 89.1 |  |  |  | > 41.3 | > 100 | > 100 |  |  | > 80.8 | 52.8 |
| C=CCc1cc(-c2cc(CC=C)c(O)c(CN(CC)CC)c2)cc(CN(CC)CC)c1O |  | 43.8 | 70.8 | > 100 | > 100 | 23.4 | 64.9 | 82.5 | 68.5 | > 100 | > 100 | > 100 | > 100 | 79.1 | 76.8 | 40 | > 100 | > 100 | > 100 |
| CCCC(C)n1c(C)nc2c1C(=O)c1ccccc1C2=O (stereo not drawn) | 50.1 | 29.1 | 97 | > 100 | > 100 | 93.7 | 16.8 | 30.8 | 63.1 |  | > 100 |  | > 100 | > 100 | > 100 | > 100 | > 100 |  |  |
| O=c1oc2ccc([N+](=O)[O-])cc2c(Nc2ccc3c(c2)Sc2ccccc2O3)c1[N+](=O)[O-] |  |  | 33.8 | 47.6 |  | 41.6 | 57.8 |  | 69 |  |  |  | 49.8 | 50.4 | 44.7 |  |  | 99.5 | 85.5 |
| O=C1C=CC(=C(c2ccc(O)cc2)c2ccc(O)cc2)C=C1 | 24.4 |  | 21.8 | 32.3 | 23.4 | 26.4 | 30.5 | 19.9 | 21.7 | 30.3 | 10.8 | 7.54 | 26.1 | 12.2 | 35.2 | 30.7 | 17.4 |  |  |
| Cc1ccc(C(=O)N(Cc2ccccc2)Cc2ccccc2)cc1N=NN(C)C |  |  | 38.7 | 99.2 | > 100 | > 81.2 | > 100 | > 100 | 53.4 |  | 72.4 |  | > 86.5 | > 100 | 90 |  | > 100 | > 100 | > 100 |
| CCOC(=O)c1sc2nc(SC)nc3c2c1NCN3c1ccc(F)c(F)c1 |  |  | > 100 | 43.5 |  | > 100 | > 100 |  | > 100 |  |  |  | > 86.5 | > 100 | 34.1 |  |  | > 100 | > 88.8 |
| Cc1cn(CCCCCCC2=NCCCN2)c(=O)[nH]c1=O |  |  | > 100 | > 100 |  | > 100 | > 100 |  | > 100 |  |  |  | > 100 | > 100 | > 100 |  |  | > 100 | > 100 |
| COc1cc(C2SC(C)C(=O)N2c2ccc(-c3csc(NS(=O)(=O)c4ccc(Cl)c(OC)c4)n3)cc2)ccc1O (stereo not drawn) |  |  | 47.1 | > 100 |  | > 100 | > 100 |  | > 100 |  |  |  | 48.3 | > 100 | > 100 |  |  | > 100 | > 100 |
| C(/Cc1ccc2c(c1)OCO2)=N\NC1=NCCN1 |  |  | > 100 | > 100 |  | > 100 | > 100 |  | > 100 |  |  |  | > 100 | > 100 | > 100 |  |  | > 100 | > 100 |
| CSc1c(C#N)c(N)nc2c(N=Nc3ccc(Br)cc3)c(N)nn12 |  |  | 12 | 38.1 |  | 24.6 | > 49.1 |  | 21.4 |  |  |  | 23.6 | 10.2 | 32.3 |  |  | 14.9 | 47.5 |
| C[n+]1c(-c2ccc(/C=N/Nc3ccnc(N/N=C/c4ccc(-c5cn6ccsc6[n+]5C)cc4)n3)cc2)cn2ccsc21 |  |  | > 100 | > 100 |  | 54.7 | 91.3 |  | 76.2 |  |  |  | > 100 | 44.2 | 80.2 |  |  | 82 | > 100 |
